The source of these data is patent US20180110837A1, “METHODS AND ASSAYS RELATING TO MACROPHAGE DIFFERENTIATION” (THE BRIGHAM AND WOMEN'S HOSPITAL, INC., priority 2012, published 2018).

In general, pKi refers to −log10 of the Ki, conventionally taken in molar units.

pKi: −log10 of the molar value. “Also recorded” adds a separate entry of the source.

Data set [1] concerns CNV lesions. The data set is described as follows: laser-induced CNV in mice, lesion size in choroidal flat mounts. Type of data set: in vivo, mouse. Conditions: for CNV lesions on day 14: treatment from day 1 or from day 7 after laser injury. An excerpt:
(§1) To induce CNV, C57BL/6 mice were anesthetized and pupils were dilated with 5% phenylephrine and 0.8% tropicamide. Using a 532-nm laser (Oculight GLx, Iridex), a slit-lamp delivery system, and a cover glass as a contact lens, four spots (100 mW, 50 μm, 100 ms) were placed in each eye. The lesions were located at 3, 6, 9 and 12 o'clock, meridians centered on the optic nerve head and located 2 to 3 disk diameter from the optic nerve head. The same technique was used to induce CNV in Brown Norway rats (four spots, 150 mW, 100m, 100 ms) 53,54 and cynomolgus monkeys (700 mW, 100m, 100 ms) 29. Development of a bubble under laser radiation confirmed the rupture of the Bruch's membrane. Eyes showing hemorrhage were excluded from experiments.
(§2) Seven or fourteen days after laser injury, the size of CNV lesions was measured in choroidal flat mounts. Briefly, mice were anesthetized and perfused through the left ventricle with PBS, followed by 5 ml of 5% fluorescein isothiocyanate-dextran (FD2000S; Sigma Aldrich) in 1% gelatin. The anterior segment and retina were removed from the eyecup. The remaining retinal pigment epithelium (RPE)-choroidsclera complex was flat mounted, after relaxing radial incisions, using Mounting Medium (FM 100119, Thermo Scientific) and coverslips. Micrographs of the choroidal complex were taken with a Leica Microscope. The volume of the lesions was quantified, using confocal microscopy (Leica TCS SP2 laser scanning confocal microscope). The magnitude of the CNV lesions was determined by measuring the hyperfluorescent area with Openlab Software (Improvision). The grade of leakage was determined by Fluorescein angiography (FA).
The control animals received equivalent amounts of vehicle, glyceryl trioctanoate (91039, Sigma-Aldrich).

Another data set deals with MLCK. Conditions: read-out: Ki MLCK; cited from earlier work.
A short description of data set [2]: electroretinography (ERG) after intravitreal injection. The conditions noted are these: rats, intravitreal injections on days 0, 3 and 6. Type of data set: in vivo, Brown Norway rats. How it is done:
On day 13, rats were dark-adapted overnight and then anesthetized. Pupils were dilated using 1% tropicamide. Methods for recording dark- and light-adapted ERGs were performed as previously described 55.

In a further data set the test system is all tested kinases. The conditions noted are these: scale of 0 to 1; over 175 inhibitors; cited from earlier work.
For another data set, the system named is HUVEC cells. The data set is described as follows: cytoskeletal staining (F-actin, paxillin) of HUVEC cells. Conditions: versus vehicle treated controls. Type of data set: cell-based. From the text:
FIG. 11A depicts HUVEC cells stained for the cytoskeletal proteins F-actin and paxillin. […] Scale bar, 20 μm. FIG. 11B depicts Western analysis of HUVECs transfected with siRNA targeting of ROCK1, ROCK2, or both. Negative control, a scramble 20-mer RNA. BlockIt (Invitrogen), a fluorescently labeled RNA to track uptake/transfection efficiency.

The test system of data set [3] is CNV lesions. Put plainly: laser-induced CNV in rats, intravitreal ROCK inhibition. In kind it is in vivo, Brown Norway rats.
Source text: as §1
as §2, with “The remaining retinal pigment epithelium (RPE)-choroidsclera complex was flat mounted, after relaxing radial incisions, using Mounting Medium (FM 100119, Thermo Scientific) and coverslips. Micrographs of the choroidal complex were taken with a Leica Microscope.” left out, “(FA). […]” for “(FA).”

Data set [4] concerns CNV lesions. The data set is described as follows: laser-induced CNV in cynomolgus monkeys, intravitreal fasudil. In kind it is in vivo, cynomolgus monkey. How it is done: Eyes from cynomolgus monkeys between 3 and 4 years of age were used in this study. Cynomolgus monkeys were restrained in a squeeze cage and injected intramuscularly in the thigh with 20 mg/kg of ketamine hydrochloride (Sankyo Yell Pharmaceutical Products Co) for general anesthesia.
Paraffin embedded sections of human eyes were deparaffinized and rehydrated with a graded alcohol series. Immunofluorescent staining was performed with antibodies (Abs) against human von Willebrandt factor (F3520, Sigma), human MMR (CD206, MAB2534, R&D Systems), human CD80 (ab53003 Abcam) or human ROCK1 (sc-17794, Santa Cruz Biotechnology) or ROCK2 (sc-1851, Santa Cruz Biotechnology) and identified with Alexa Fluor 488 (10 μg/ml, A-11055; Invitrogen) or 647 (10 μg/ml, A21244; Invitrogen) secondary Abs. On day 3 after laser injury, 10 μm frozen sections of the posterior segment were prepared. The mouse eye sections were incubated with a rat anti-mouse F4/80 mAb (MCA497R, AbD Serotec) or CD11b (550282, BD Pharmingen), and subsequently with the secondary Ab. In monkey eyes, CD68 (goat polyclonal antibody, sc-7082, Santa Cruz), vWF (rabbit polyclonal antibody, A0082, DAKO), ROCK1 (mouse monoclonal antibody, sc-17794, Santa Cruz) and ROCK2 (goat polyclonal antibody, sc-1851, Santa Cruz) were stained. Images were obtained with a Leica microscope.
To induce CNV, C57BL/6 mice were anesthetized and pupils were dilated with 5% phenylephrine and 0.8% tropicamide. Using a 532-nm laser (Oculight GLx, Iridex), a slit-lamp delivery system, and a cover glass as a contact lens, four spots (100 mW, 50 μm, 100 ms) were placed in each eye. The lesions were located at 3, 6, 9 and 12 o'clock, meridians centered on the optic nerve head and located 2 to 3 disk diameter from the optic nerve head. […]
FA was performed in anesthetized Brown Norway rats from ROCK inhibitor or vehicle treated groups, using a digital fundus camera (SLO; HRA2; Heidelberg Engineering), 7 and 14 days after laser injury. […] FA images were evaluated by two masked retina specialists. […]

Data set [5] concerns the target T1, ROCK1 (Homo sapiens, UniProt Q13464).
T1 construct: recombinant ROCK1 and ROCK2 enzymes containing the truncated catalytic domains (PV3691 and PV3759) were purchased from Invitrogen; purchased Invitrogen PV3691
The data set is described as follows: ROCK1 enzymatic activity, [γ33P]ATP / S6 kinase substrate radiometric assay (FIG. 7A). In kind it is biochemical. The conditions noted are these: FIG. 7B; ROCK1 versus ROCK2.

The subject of a further data set is protein kinase A and C. The conditions noted are these: cited from earlier work.
The test system of data set [6] is CD11b/CD206 infiltrating cells in CNV. Put plainly: FACS analysis of infiltrating cells from CNV eyes. In kind it is in vivo, mouse. How it is done: To examine macrophages in the retina and choroid, cells were prepared from mouse eyes. To collect a sufficient number of ocular infiltrating cells, 50 burns were delivered to mouse eyes by laser. After laser injury, eyes were enucleated at different time points (1, 2, 3, 5, and 7 days). The anterior segment (cornea, iris, and lens) was excised and the posterior segment of the eye including sclera, choroid, and retina was disrupted with scissors and then shaken in DMEM (plus 10% FBS (Gibco Laboratories), 100 U/ml penicillin, 100 μg/ml streptomycin) supplemented with 0.5 mg/ml Collagenase type D (11 088 874 103, Boehringer Mannheim) at 37° C. for 60 min. The supernatants were collected and passed through a mesh. After 3 washes, viable cells were obtained. A total of 12 eyes (6 individual pools) were examined per group. The cells were stained with PE anti-mouse CD11b (557397, BD Pharmingen), FITC antimouse CD206 (MMR, 123005; BioLegend) and PE-Cy5 anti-mouse CD80 Abs (15-0801-81, eBioscience). RAW 264.7 cells were stained with PerCP anti-mouse CD11b (101230, BioLegend), PerCP anti-mouse F4/80 (123006, BioLegend), PE anti-mouse CD80 (12-0801, eBioscience), FITC anti-mouse CD206 (141704, BioLegend). […] The control animals received equivalent amounts of vehicle, glyceryl trioctanoate (91039, Sigma-Aldrich).
For orientation: Flow cytometry measures light scatter and fluorescence of single cells or particles in a stream.

Data set [7] has as its system vascular leakage of CNV lesions. The data set is described as follows: leakage from angiogenic vessels by fluorescein angiography after laser injury. In kind it is in vivo, mice. How it is done: FA was performed in anesthetized Brown Norway rats from ROCK inhibitor or vehicle treated groups, using a digital fundus camera (SLO; HRA2; Heidelberg Engineering), 7 and 14 days after laser injury. Fluorescein injections were performed intravenously (0.2 ml of 2% fluorescein; Akorn, NDC 17478-253-10). Monkeys were injected with 5% fluorescein intravenously (Fluorescite, Alcon). FA images were evaluated by two masked retina specialists. The grading criteria were as follows: Grade-0, no hyperfluorescence; Grade-I, hyperfluorescence without leakage; Grade-IIA, hyperfluorescence in the early or mid-transit images and late leakage; Grade-IIB, bright hyperfluorescence in the transit images and late leakage beyond the treated areas. The Grade-IIB lesions were considered as clinically significant, as described previously 53. […] The control animals received equivalent amounts of vehicle, glyceryl trioctanoate (91039, Sigma-Aldrich).

In data set [8] the target is T1, ROCK1. Conditions: at concentrations up to 10 μM; cited from earlier work.
The conditions of data set [9]: in vivo; cited from earlier work.
Where [10] appears, read: systemic treatment after laser injury.
The mark [11] stands for this setting: monkeys, intravitreal injections.
Setting [12] is: IL-4, IL-10 and IL-13 injected eyes, in addition ROCK2 inhibitor treated.
Where [13] appears, read: M1-cytokine cocktail injected eyes, in addition ROCK2 inhibitor treated.

T1 sequence (Q13464 76-338 limits assumed): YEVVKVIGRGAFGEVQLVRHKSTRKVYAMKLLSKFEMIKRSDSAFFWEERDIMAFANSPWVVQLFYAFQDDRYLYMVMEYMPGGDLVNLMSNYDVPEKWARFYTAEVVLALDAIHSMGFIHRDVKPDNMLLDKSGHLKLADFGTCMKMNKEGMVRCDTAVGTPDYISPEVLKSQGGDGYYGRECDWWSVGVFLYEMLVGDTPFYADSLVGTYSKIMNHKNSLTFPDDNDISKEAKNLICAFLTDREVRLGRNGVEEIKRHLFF

For `Cl.O=S(=O)(c1cccc2cnccc12)N1CCCNCC1` [fasudil, 5-(1,4-diazepan-1-ylsulfonyl)isoquinoline hydrochloride], the “reduction of CNV lesions compared to control” value in the data set with CNV lesions [1] (pan ROCK inhibition, rodents) is given as approximately 60%. The “CNV size” value in the data set on CNV lesions [1] (setting [10]) is on record as “significantly smaller”. Further, in the data set with CNV lesions [1], the “CNV lesions on day 14” value is given as “CNV reduction”. Besides, the pKi at MLCK was 4.44. Further, the “changes in the electroretinogram (ERG)” value in data set [2] is listed as “does not cause functional ERG changes”. Further, the gini score in the data set with all tested kinases is 0.63. Besides, in the data set on HUVEC cells, the paxillin distribution entry was “concentrated in the nuclear or immediate perinuclear regions”. Besides, the “CNV size (day 7)” value in the data set with CNV lesions [3] is given as “reduces CNV”. Moreover, in the data set with CNV lesions [4] (monkey eyes, intravitreal injection), the “macrophage infiltration into CNV lesions” value is reported as “significantly reduced”. Also, in the data set on CNV lesions [4] (setting [11]), the CNV membrane thickness result is reported as “significantly reduced” and the “percentage of the clinically relevant 2B leakages” value was “significantly reduced”. The “inhibitory activities against ROCK1 and ROCK2 compared” value at ROCK1 [5] was “equipotent”. Besides, the “effect on protein kinase A and C” value in the data set with protein kinase A and C is on record as “affect”.
Turning to `C[C@@H](N)[C@H]1CC[C@H](C(=O)Nc2ccncc2)CC1` [Y-27632, (R)-(+)-trans-N-(4-pyridyl)-4-(1-aminoethyl)-cyclohexanecarboxamide], the paxillin distribution result in the data set on HUVEC cells was “concentrated in the nuclear or immediate perinuclear regions”. Further, the “inhibitory activities against ROCK1 and ROCK2 compared” value against ROCK1 [5] is “equipotent”. The “effect on protein kinase A and C” value with protein kinase A and C was “affect”.
Take `CC(C)NC(=O)COc1cccc(-c2nc(Nc3ccc4[nH]ncc4c3)c3ccccc3n2)c1` [SLx-2119]: the MaDAMs result in data set [6] is “significantly decreased”. Further, the CNV size result in the data set on CNV lesions [1] (setting [12]) is reported as “reduced to control levels”; in the data set with CNV lesions [1] (setting [10]) it was “significantly decreased”; in the data set with CNV lesions [1] (systemic treatment after laser injury, listed as selective ROCK2 inhibitor), “significantly reduced”. Moreover, the CNV entry in the data set with CNV lesions [1] (setting [13]) is reported as “remained unaffected”. In addition, the “CNV size in adiponectin−/− mice” value in the data set with CNV lesions [1] (adiponectin−/− mice) is reported as “lack of function”. The “dose at which maximum efficacy was reached” value in the data set on CNV lesions [1] (intraperitoneal) was determined as 10 mg/kg. In addition, the “reduction of CNV” value in the data set with CNV lesions [1] (intraperitoneal, dose of 1 mg/kg) was 66%. Moreover, the “CNV lesions on day 14” value in the data set with CNV lesions [1] (listed as ROCK2 inhibitor) is reported as “reduced; also recorded: CNV reduction”. Also, the “percentage of clinically relevant 2B leakage” value in data set [7] (setting [12]) was “reduced to control levels”. Further, in data set [7] (setting [13]), the leakage entry is listed as “remained unaffected”. Besides, in [7] (fluorescein angiography), the “leakage / percentage of the clinically relevant 2B leakages” value is reported as “significantly decreased”. For the same compound, on ROCK1 [8], the ROCK1 enzymatic activity entry was “did not affect”. Besides, in data set [2], the “changes in the electroretinogram (ERG)” value is recorded as “does not cause functional ERG changes”. For the same compound, the paxillin distribution result in the data set on HUVEC cells was “comparable to the control cells”. Besides, the “CNV size (day 7)” value in the data set on CNV lesions [3] is reported as “reduces CNV”. Further, the “phase I clinical (toxicity) trial” value in [9] is listed as “successfully completed”.
